Measurements reported in patent US20250115581A1, “SUBSTITUTED PIPERIDINES AS CK1A DEGRADERS” (Monte Rosa Therapeutics, Inc., priority 2022, published 2025).

What was measured:
[1] = target: T1, CK1α (Homo sapiens, UniProt P48729+Q96SW2); experiment: CK1α NanoBit Assay (HiBiT-tagged CSNK1A1 in HEK293 cells, luminescence); type: cell-based; settings: 24 h
T1 construct: HEK293 clonal lines with CRISPR KI HiBiT tag on CSNK1A1; host or cells: HEK293 clonal line, CRISPR knock-in HiBiT at the CSNK1A1 locus, stably expressing LgBiT
T1 sequence (P48729 whole entry): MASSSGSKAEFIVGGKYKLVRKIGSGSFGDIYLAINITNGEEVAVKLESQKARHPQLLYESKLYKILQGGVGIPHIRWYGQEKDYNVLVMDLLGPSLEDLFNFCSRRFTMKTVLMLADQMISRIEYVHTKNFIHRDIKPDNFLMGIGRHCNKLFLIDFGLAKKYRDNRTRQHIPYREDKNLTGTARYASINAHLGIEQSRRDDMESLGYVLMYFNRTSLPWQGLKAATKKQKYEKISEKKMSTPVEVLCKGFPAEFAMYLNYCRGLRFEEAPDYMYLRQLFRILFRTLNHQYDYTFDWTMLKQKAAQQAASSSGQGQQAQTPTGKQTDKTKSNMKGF
T1 sequence (Q96SW2 whole entry): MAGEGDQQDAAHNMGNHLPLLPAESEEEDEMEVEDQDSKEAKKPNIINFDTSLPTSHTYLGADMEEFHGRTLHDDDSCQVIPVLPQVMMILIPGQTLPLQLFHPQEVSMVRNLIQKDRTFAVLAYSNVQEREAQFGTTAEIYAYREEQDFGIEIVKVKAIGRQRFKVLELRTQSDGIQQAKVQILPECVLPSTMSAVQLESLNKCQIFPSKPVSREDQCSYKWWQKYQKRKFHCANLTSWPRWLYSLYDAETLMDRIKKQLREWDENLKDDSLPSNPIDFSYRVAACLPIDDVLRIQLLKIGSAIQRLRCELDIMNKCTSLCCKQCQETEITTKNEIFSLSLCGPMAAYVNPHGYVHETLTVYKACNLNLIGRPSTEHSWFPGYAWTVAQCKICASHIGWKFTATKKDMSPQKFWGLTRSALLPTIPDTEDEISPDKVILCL
T1 sequence (Q16531 whole entry partner): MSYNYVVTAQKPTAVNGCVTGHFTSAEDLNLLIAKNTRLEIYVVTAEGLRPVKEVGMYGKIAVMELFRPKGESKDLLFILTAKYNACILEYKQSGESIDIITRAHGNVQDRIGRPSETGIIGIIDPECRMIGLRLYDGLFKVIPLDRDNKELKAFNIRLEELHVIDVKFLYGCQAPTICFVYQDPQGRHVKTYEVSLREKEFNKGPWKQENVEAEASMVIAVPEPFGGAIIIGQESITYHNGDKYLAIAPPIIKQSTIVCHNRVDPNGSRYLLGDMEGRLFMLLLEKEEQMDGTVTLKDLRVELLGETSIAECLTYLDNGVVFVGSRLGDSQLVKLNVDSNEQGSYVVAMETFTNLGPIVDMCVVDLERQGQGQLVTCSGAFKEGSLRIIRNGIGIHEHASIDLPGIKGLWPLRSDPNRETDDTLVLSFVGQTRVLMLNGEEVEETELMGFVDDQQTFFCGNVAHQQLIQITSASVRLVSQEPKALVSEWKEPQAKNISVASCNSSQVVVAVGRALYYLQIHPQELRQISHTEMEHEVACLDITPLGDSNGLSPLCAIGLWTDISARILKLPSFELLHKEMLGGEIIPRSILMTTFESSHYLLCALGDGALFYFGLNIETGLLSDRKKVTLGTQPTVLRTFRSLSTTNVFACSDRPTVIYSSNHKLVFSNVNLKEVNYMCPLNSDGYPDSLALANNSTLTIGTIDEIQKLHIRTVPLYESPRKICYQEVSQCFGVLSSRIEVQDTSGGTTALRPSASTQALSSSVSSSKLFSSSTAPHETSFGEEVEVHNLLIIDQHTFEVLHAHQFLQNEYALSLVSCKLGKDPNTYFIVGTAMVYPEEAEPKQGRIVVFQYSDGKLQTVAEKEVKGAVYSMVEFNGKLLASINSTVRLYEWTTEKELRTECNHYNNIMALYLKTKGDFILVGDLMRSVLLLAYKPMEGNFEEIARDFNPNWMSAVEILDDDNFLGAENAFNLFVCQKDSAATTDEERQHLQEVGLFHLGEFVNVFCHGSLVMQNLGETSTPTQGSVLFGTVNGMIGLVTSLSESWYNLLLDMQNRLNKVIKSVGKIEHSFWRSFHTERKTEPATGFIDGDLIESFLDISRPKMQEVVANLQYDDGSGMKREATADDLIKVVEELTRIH
Procedure, shortened: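 HEK293 with endogenous HiBiT-tagged CSNK1A1 and stable LgBiT, live-cell Endurazine substrate; compound added at 10 or 30 μM final top concentration after 16 h plating, then 24 h at 37 °C. Luminescence normalised to plate controls; DC50 by 3-parameter logistic fit, hill slope 1.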

[2] = Mouse oral PK at 10 mg/kg; type: in vivo, Male BALB/c mice; settings: male, BALB/c, plasma
Description: Male BALB/c mice were fasted overnight and administered a discrete, oral (PO) dose of Compound 107 or Compound 125 at 10 mg/kg.
Blood samples were collected serially from three animals/time-point following PO administration of the test compounds to the mice and placed in tubes containing K2EDTA. The blood samples were centrifuged, and the aliquots of the resulting plasma stored frozen at −60 to −90° C.
The plasma samples were analyzed by LC-MS/MS to determine concentrations of the test compounds. The in-life portion of the study and the bioanalysis of plasma samples was conducted at Wuxi (China).
The pharmacokinetic parameters for the tested compounds were calculated by non-compartmental analysis using Phoenix WinNonlin software.

[3] = target: T1, CK1α; experiment: Western blot of CK1α levels in HEK293 cell line; type: cell-based; settings: cereblon present, 0.1, 1, 10 μM, 24 hours
Description: (§1) FIG. 1 depicts effects of compound 101 on CK1α levels in an HEK293 cell line in comparison to effects of compound 101 on CK1α levels in a cereblon (CRBN) knock-out HEK293 cell line.
(§2) HEK293 cell line is purchased from ATCC (CRL-1573). HEK293 CRBN knock out (k/o) cell line (B2) is generated internally using CRISPR/Cas9 method and clonally expanded. Cells are plated at 2×10^5 cells per well in 6-well tissue culture plates (VWR) in 2 ml of DMEM media (Gibco) containing 10% FBS (Gibco), and incubated for 16 hours at 37° C., 5% CO2. Compounds are added to final concentration of 0.1 μM, 1 μM, 10 μM (DMSO concentration is kept constant at 0.1%), following incubation at 37° C., 5% CO2 for additional 24 hours. Cell lysis is performed using RIPA buffer (Pierce) containing Halt™ Protease Inhibitor Cocktail (ThermoFisher Scientific). Lysates are boiled at 95° C. for 10 minutes and 12 μg of protein lysate per sample is resolved by SDS-PAGE using 12% gels (BioRad) and transferred to nitrocellulose membrane (BioRad). Membranes are blocked using LI-COR blocking buffer (LI-COR) at room temperature for 1 hour, followed by overnight incubation with rabbit anti-CK1α (Abcam ab206652), rabbit anti-CRBN (Sigma HPA045910) and mouse anti-α-tubulin (Sigma T9026) antibodies at 4° C. Secondary antibodies (LI-COR) are added for a hour at room temperature, followed by imaging with LI-COR imaging system Odyssey® CLx.

[4] = target: T1, CK1α; experiment: Western blot of CK1α levels in cereblon (CRBN) knock-out HEK293 cell line; type: cell-based; settings: 0.1, 1, 10 μM, 24 hours
Description: as §1, §2

[5] = tested on: LS180; experiment: Growth inhibition, CyQUANT Direct Cell Proliferation Assay, LS180; type: cell-based; settings: Homo sapiens; LS180 cells, 120 to 168 hours
Description: SKCO1, LS180, and LS174T cell lines were purchased from ATCC. CW2 cell line was purchased from Riken. GP2D cell line was purchased from Sigma/ECACC. All cell lines were cultured in manufacturer's recommended media at 37° C., 5% CO2. Briefly, cells were suspended in 200 μL of media and seeded at 300 to 1,800 cells per well in tissue culture treated 96-well plates with black walls and clear bottom. Plates were incubated overnight and initial (TO) read was performed the following day using CyQUANT Direct Cell Proliferation Assay Kit (Thermo Fisher Scientific) according to manufacturer's protocol. All compounds were solubilized in DMSO and prepared at 3-fold serial dilution, using 9 points starting at 30 μM as highest concentration, administered to cells and incubated for 120 to 168 hours, at which point CyQUANT assay measurement was performed using Acumen Cellista instrument (Ex/Em 480/520 nm). Media-only wells were used as blank, and 0.3% DMSO was used as DMSO-treated cell control. Growth inhibition (percent response) was calculated using the following formula in Excel: “=if ([Compound treated Day N]>[Untreated Day 0, AVG], ([Compound treated Day N]− [Untreated Day 0, AVG])/([Untreated Day N]−[Untreated Day 0, AVG])*100, ([Compound Treated Day N]−[Untreated Day 0, AVG])/([Untreated Day 0, AVG])*100)”. GI50 is the response corresponding to the 50% of untreated control.
GI50 data are reported in Tables 4a, 4b, 4c, 4d, and 4e for compounds in Table 1. In Tables 4a, 4b, 4c, 4d, and 4e below, According to the code, A represents a GI50 value of ≤0.1 μM, B represents a GI50 value >0.1 μM and ≤1 μM, C represents an GI50 value >1 μM.

SMILES | DC50 [1] [µM] | Tmax [2] [h] | AUC ([2]; Mean ± SD) [ng·h/mL] | AUC(0-t) ([2]; Mean ± SD) [ng·h/mL] | Cmax ([2]; Mean ± SD) [ng/mL] | half-life ([2]; Mean ± SD) [h] | effect on CK1α levels (Western blot, FIG. 1) [3] | effect on CK1α levels (Western blot, FIG. 1) [4] | GI50 [5] [nM]
C[C@@H]1CN(c2ccc3c(c2)CN(C2CCC(=O)NC2=O)C3=O)C(=O)N1c1ccccc1 (stereo partly drawn) [Compound 107, 3-(5-((R)-4-methyl-2-oxo-3-phenylimidazolidin-1-yl)-1-oxoisoindolin-2-yl)piperidine-2,6-dione] | ≤ 0.1 | 1 | 5880 ± 1600 | 5590 ± 1830 | 1520 ± 262 | 2.53 ± 0.37 |  |  | 
O=C1CCC(N2Cc3cc(N4CCN(c5ccccc5)C4=O)ccc3C2=O)C(=O)N1 (stereo not shown) [Compound 101, 3-(1-oxo-5-(2-oxo-3-phenylimidazolidin-1-yl)isoindolin-2-yl)piperidine-2,6-dione] | ≤ 0.1 |  |  |  |  |  | decreases CK1α levels | no effect on CK1α levels | > 1000
C[C@@H]1CN(c2ccc3c(c2)CN(C2CCC(=O)NC2=O)C3=O)C(=O)N1c1ccc(C2CC2)cc1 (stereo partly drawn) [Compound 125, 3-(5-((R)-3-(4-cyclopropylphenyl)-4-methyl-2-oxoimidazolidin-1-yl)-1-oxoisoindolin-2-yl)piperidine-2,6-dione] | ≤ 0.1 | 1 | 1860 ± 495 | 1790 ± 504 | 717 ± 167 |  |  |  | 100 to 1000
